Columns and labels:
Format in all cases: cell-based, human
[1] = system: BEL-7402 cells; test: DCFH-DA probe, intracellular ROS by flow cytometry; settings: 48-h treatment, dose-dependent
Protocol: Drug grouping and administration were performed as described in Section 2.6. After 48 h of incubation, 500 μL of DCFH-DA probe (Beyotime, Nanjing, China) was added to each well. The cells were stained for 30 min at 37 °C and protected from light. The dye was then discarded, and the cells were washed three times with a serum-free medium. Samples were analyzed using flow cytometry with an excitation wavelength of 480 nm and an emission wavelength of 525 nm.

[2] = system: BEL-7402 cells; test: Annexin V-FITC/PI flow cytometry apoptosis assay
Protocol: BEL-7402 cells in the logarithmic growth phase were prepared into a cell suspension at a concentration of 2.5 × 10^5 cells/mL and seeded into 6-well culture plates with 2 mL per well. After overnight incubation, different concentrations of Mito-ICT-4 (0.625, 1.25, 2.5 μmol/L) were added to the cells, and a control group was included. After 48 h of culture, the supernatant was transferred to a centrifuge tube. The cells were then digested with pancreatin (without EDTA) (Beyotime, Nanjing, China) at room temperature and centrifuged at 4 °C for 5 min (10,000 rpm). The supernatant was discarded. Then, 300 μL of 1× buffer was added to each group, and the mixture was well mixed. The mixture was then incubated with 5 μL of Annexin V-FITC (Solarbio, Beijing, China) solution at room temperature for 5 min, protected from light, followed by the addition of 5 μL of PI solution. Apoptosis was detected using flow cytometry (BD Biosciences, Franklin Lakes, NJ, USA).

[3] = system: BEL-7402 cells; test: Calcein AM/CoCl2 probe, MPTP opening; settings: increasing drug concentration, 24 h
Protocol: Drug grouping and administration were performed as described in Section 2.5. After 24 h of incubation, 500 μL of staining solution (containing 2 μM Calcein AM and 5 mM CoCl2) (Aladdin, Shanghai, China) was added to each well. The cells were stained for 30 min at 37 °C and protected from light. After staining, the solution was discarded, and the cells were washed twice with PBS. The cells were then observed under an inverted fluorescence microscope.

[4] = system: DDIT3; test: Western blot; settings: vs blank control, p < 0.001
Protocol: (§1) Drug grouping and administration were performed as described in Section 2.6. After 48 h of incubation, the supernatant was discarded, and the cells were washed twice with pre-cooled PBS. A volume of 150 µL of RIPA lysis buffer (Solarbio, Beijing, China) was added and incubated on ice. After sufficient lysis, the supernatant was centrifuged, and the protein concentration was determined using a BCA kit (Thermo, Waltham, MA, USA). The SDS-PAGE gel system was chosen based on the molecular weight of the target proteins to perform electrophoresis. After electrophoresis, the processed samples were transferred to a membrane and incubated at room temperature for 2 h to block non-specific binding. After membrane transfer, the membranes were incubated with primary antibodies against CypD (Proteintech Group, Wuhan, China), SIRT3 (Abcam, Cambridge, UK), P-MKK6 (Bioss, Beijing, China), P-P38 (Bioss, Beijing, China), DDIT3 (Bioss, Beijing, China), Cleaved-caspase-3 (Abcam, Cambridge, UK), and β-actin (ZSGB-BIO, Beijing, China) (1:1000) at 4 °C overnight. After primary antibody binding, the membranes were incubated with the corresponding secondary antibody (ZSGB-BIO, Beijing, China) (1:3000) at room temperature for 1 h. Immunoblot bands were detected using an enhanced chemiluminescence system (Analytik Jena AG, Jena, Germany). The bands were analyzed using ImageJ (v1.8.0) software.

[5] = system: P-P38; test: Western blot; settings: with increasing concentrations vs blank control, p < 0.001
Protocol: as §1

[6] = system: SIRT3; test: Western blot; settings: 48 h
Protocol: as §1

[7] = system: Cl-caspase-3; test: Western blot; settings: 48 h
Protocol: as §1

[8] = system: CypD; test: Western blot; settings: 48 h
Protocol: as §1

[9] = system: P-MKK6; test: Western blot; settings: with increasing concentrations vs blank control, p < 0.001
Protocol: as §1

[10] = low-concentration group vs control, p < 0.01

COc1ccc(-c2oc3c(CC=C(C)C)c(OC(=O)CCCCCCCCCC[P+](c4ccccc4)(c4ccccc4)c4ccccc4)cc(O)c3c(=O)c2O)cc1 [Mito-ICT-4]
intracellular ROS levels [1]: significantly elevated | cells undergoing early apoptosis ([2]; BEL-7402 cells treated with Mito-ICT-4): 27.39% | apoptosis-inducing ability relative to ICT ([2]; BEL-7402 cells, sentence cites [24]): approximately 29.8 times | total apoptosis rate ([2]; high-dose group (2.5 μmol/L), 48 h): 27.39% | morphology with Calcein AM/CoCl2 (MPTP opening) [3]: transitioned from oval to round and, ultimately, to an irregular shape | expression level of DDIT3 [4]: increased significantly | expression level of P-P38 [5]: decreased significantly | SIRT3 expression levels [6, 10]: decreased | SIRT3 expression levels ([6]; medium- and high-concentration groups vs control, p < 0.001): significantly reduced | expression of Cl-caspase-3 ([7]; high-concentration group vs control, p < 0.001): significantly higher | expression of Cl-caspase-3 [7, 10]: elevated | CypD protein expression [8, 10]: elevated | CypD protein expression ([8]; medium and high-concentration groups vs control, p < 0.001): significantly higher | expression level of P-MKK6 [9]: decreased significantly

From article PMC12029982, “The Mechanism of a Novel Mitochondrial-Targeted Icaritin Derivative in Regulating Apoptosis of BEL-7402 Cells Based on the SIRT3 and CypD-Mediated ROS/p38 MAPK Signaling Pathway” (Molecules, 2025)
